The test system of experiment [1] is Pseudomonas putida. Description: Antibacterial activity against Pseudomonas putida PAW340 assessed as decrease in bacterial count at 20 to 150 ug/ml. The experiment is classed as functional, organism-based.
Experiment [2] relates to Pseudomonas putida. Description: Inactivation of Pseudomonas putida PAW340 biofilms assessed as decrease in heat production by Chip calorimetry. It counts as functional, organism-based.
Experiment [3] concerns Pseudomonas putida. The experiment can be described thus: Inactivation of Pseudomonas putida PAW340 biofilms assessed as decrease in ATP content at 0.5 mM by Chip calorimetry. The experiment is classed as functional, organism-based.
Experiment [4] deals with Pseudomonas putida. Description: Inactivation of Pseudomonas putida PAW340 biofilms assessed as decrease in heat production at 0.5 mM within 1 hr by Chip calorimetry. It counts as functional. Further details: scale not given: the % may be the effect or the level left.
Experiment [5] has as its system Pseudomonas putida. Description: Inactivation of Pseudomonas putida PAW340 biofilms assessed as decrease in heat production at 0.5 mM by Chip calorimetry. It counts as functional, organism-based.
The next experiment relates to Neisseria gonorrhoeae. Description: Antibacterial activity against Neisseria gonorrhoeae. It counts as functional.
The subject of experiment [6] is Pseudomonas putida. Description: Inactivation of Pseudomonas putida PAW340 biofilms assessed as decrease in heat production at 3 to 30 ug/ml by Chip calorimetry. It counts as functional, organism-based. The settings on record: TDE = time-dependent effect.
For experiment [7], the system named is Pseudomonas putida. The experiment can be described thus: Effect on Pseudomonas putida PAW340 biofilms assessed as heat production at 70 ug/ml by Chip calorimetry. It counts as functional.
A further experiment relates to Staphylococcus aureus. The experiment can be described thus: Antibacterial activity against Staphylococcus aureus. It counts as functional.
Another experiment concerns Escherichia coli. Description: Antibacterial activity against Escherichia coli. It counts as functional.
A further experiment has as its system Pseudomonas aeruginosa. The experiment can be described thus: Antibacterial activity against Pseudomonas aeruginosa. The experiment is classed as functional.
The subject of experiment [8] is Pseudomonas putida. Description: Effect on Pseudomonas putida PAW340 biofilms assessed as heat production at 3 ug/ml by Chip calorimetry. The experiment is classed as functional.
Another experiment relates to Klebsiella pneumoniae. The experiment can be described thus: Antibacterial activity against Klebsiella pneumoniae. It counts as functional.
Experiment [9] relates to Pseudomonas putida. The experiment can be described thus: Effect on Pseudomonas putida PAW340 biofilms assessed as heat production at 250 ug/ml by Chip calorimetry. The experiment is classed as functional.

≈ marks a conversion by molar mass, not a printed value. Calls of active or inactive are those of the source. The rule behind the calls is not given here.

Consider `O=C(O)c1cn(C2CC2)c2cc(N3CCNCC3)c(F)cc2c1=O`, for which the outcome with Pseudomonas putida [1] was Active. Further, the Activity entry in the experiment with Pseudomonas putida [2] is “Dose-dependent effect”.
For `O=[N+]([O-])c1ccc(O)c([N+](=O)[O-])c1` [2,4-DINITROPHENOL], the outcome with Pseudomonas putida [3] and in the experiment with Pseudomonas putida [5] was Active. Further, the Activity in the experiment with Pseudomonas putida [4] is recorded as 90%.
Compound `NC[C@H]1O[C@H](O[C@H]2[C@H](O)[C@@H](O[C@H]3O[C@H](CO)[C@@H](O)[C@H](N)[C@H]3O)[C@H](N)C[C@@H]2N)[C@H](O)[C@@H](O)[C@@H]1O` [KANAMYCIN] came in with an MIC in the experiment with Neisseria gonorrhoeae of 2 µg/mL (≈ 4.13 µM). Further, the Activity entry in the experiment with Pseudomonas putida [6] was “tde”.
Turning to `CN(C)[C@@H]1C(O)=C(C(N)=O)C(=O)[C@@]2(O)C(O)=C3C(=O)c4c(O)cccc4[C@@](C)(O)[C@H]3C[C@@H]12` [TETRACYCLINE], the Activity in the experiment with Pseudomonas putida [7] is given as 118%; with Pseudomonas putida [8] it was 100%; in the experiment with Pseudomonas putida [9], 100%. For the same compound, the MIC against Staphylococcus aureus was 0.15 µg/mL (≈ 0.338 µM); against Escherichia coli, 0.07 µg/mL (≈ 0.158 µM); against Pseudomonas aeruginosa it was 6.25 µg/mL (≈ 14.1 µM); against Klebsiella pneumoniae it was 2.5 µg/mL (≈ 5.63 µM).

These data come from ChEMBL document CHEMBL1687754, “Chip calorimetry for fast and reliable evaluation of bactericidal and bacteriostatic treatments of biofilms” (2010).
